Source: ChEMBL document CHEMBL1201862, “PubChem BioAssay data set” (2004)
The source made the active and inactive calls.

Assays:
[1] = biological target: Serine/threonine-protein kinase TBK1 (Homo sapiens, UniProt Q9UHD2); experiment: Navigating the Kinome. Panel member name: TBK1; assay type: functional
[2] = biological target: Mitogen-activated protein kinase 9 (Homo sapiens, UniProt P45984); assay type: functional;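 note: value from a kinome panel profiling assay, MAPK9 panel entry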
[3] = biological target: Aurora kinase A (Homo sapiens, UniProt O14965); assay type: functional;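 note: value from the Navigating the Kinome kinase panel profiling, panel entry STK6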
[4] = biological target: Tyrosine-protein kinase Lck (Homo sapiens, UniProt P06239); assay type: functional;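 note: lck was assayed as one member of a kinase panel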
[5] = biological target: Mitogen-activated protein kinase kinase kinase kinase 4 (Homo sapiens, UniProt O95819); assay type: functional
Mitogen-activated protein kinase kinase kinase kinase 4, sequence (O95819 whole entry): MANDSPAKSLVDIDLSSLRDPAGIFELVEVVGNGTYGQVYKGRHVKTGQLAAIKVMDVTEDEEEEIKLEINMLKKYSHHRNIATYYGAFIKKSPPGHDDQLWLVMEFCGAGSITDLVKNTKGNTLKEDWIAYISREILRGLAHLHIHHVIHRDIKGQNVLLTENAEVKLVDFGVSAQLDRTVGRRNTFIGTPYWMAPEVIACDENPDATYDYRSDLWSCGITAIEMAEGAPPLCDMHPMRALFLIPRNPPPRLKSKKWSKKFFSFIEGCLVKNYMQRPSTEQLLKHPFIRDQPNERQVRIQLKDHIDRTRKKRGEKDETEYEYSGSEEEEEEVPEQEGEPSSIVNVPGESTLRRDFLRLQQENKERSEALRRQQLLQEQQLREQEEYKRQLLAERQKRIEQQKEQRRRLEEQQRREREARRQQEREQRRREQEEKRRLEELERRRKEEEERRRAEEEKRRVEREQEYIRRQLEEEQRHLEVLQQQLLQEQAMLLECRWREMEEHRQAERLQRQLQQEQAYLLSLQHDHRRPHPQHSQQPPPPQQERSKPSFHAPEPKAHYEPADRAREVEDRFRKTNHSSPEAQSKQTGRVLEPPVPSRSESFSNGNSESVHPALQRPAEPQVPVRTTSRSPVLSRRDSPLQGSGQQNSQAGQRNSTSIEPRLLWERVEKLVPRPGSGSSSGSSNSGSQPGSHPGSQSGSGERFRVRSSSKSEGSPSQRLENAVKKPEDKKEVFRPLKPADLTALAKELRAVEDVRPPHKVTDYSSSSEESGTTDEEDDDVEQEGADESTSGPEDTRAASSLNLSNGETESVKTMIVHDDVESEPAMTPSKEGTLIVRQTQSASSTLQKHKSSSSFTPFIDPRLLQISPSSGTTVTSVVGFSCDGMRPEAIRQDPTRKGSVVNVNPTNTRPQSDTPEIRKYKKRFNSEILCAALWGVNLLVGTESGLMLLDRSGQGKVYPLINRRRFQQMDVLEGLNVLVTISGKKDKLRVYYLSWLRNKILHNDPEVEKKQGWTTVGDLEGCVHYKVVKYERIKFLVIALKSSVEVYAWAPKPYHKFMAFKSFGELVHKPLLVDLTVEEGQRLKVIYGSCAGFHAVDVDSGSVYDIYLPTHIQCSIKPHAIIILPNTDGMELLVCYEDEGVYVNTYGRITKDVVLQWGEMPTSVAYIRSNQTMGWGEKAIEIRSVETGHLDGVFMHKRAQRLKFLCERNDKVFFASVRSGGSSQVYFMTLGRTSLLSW

[6] = biological target: Tyrosine-protein kinase JAK3 (Homo sapiens, UniProt P52333); assay type: functional
[7] = biological target: Macrophage colony-stimulating factor 1 receptor (Homo sapiens, UniProt P07333); assay type: functional;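 note: value comes from the Navigating the Kinome screening panel, CSF1R member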
Macrophage colony-stimulating factor 1 receptor, sequence (P07333 whole entry): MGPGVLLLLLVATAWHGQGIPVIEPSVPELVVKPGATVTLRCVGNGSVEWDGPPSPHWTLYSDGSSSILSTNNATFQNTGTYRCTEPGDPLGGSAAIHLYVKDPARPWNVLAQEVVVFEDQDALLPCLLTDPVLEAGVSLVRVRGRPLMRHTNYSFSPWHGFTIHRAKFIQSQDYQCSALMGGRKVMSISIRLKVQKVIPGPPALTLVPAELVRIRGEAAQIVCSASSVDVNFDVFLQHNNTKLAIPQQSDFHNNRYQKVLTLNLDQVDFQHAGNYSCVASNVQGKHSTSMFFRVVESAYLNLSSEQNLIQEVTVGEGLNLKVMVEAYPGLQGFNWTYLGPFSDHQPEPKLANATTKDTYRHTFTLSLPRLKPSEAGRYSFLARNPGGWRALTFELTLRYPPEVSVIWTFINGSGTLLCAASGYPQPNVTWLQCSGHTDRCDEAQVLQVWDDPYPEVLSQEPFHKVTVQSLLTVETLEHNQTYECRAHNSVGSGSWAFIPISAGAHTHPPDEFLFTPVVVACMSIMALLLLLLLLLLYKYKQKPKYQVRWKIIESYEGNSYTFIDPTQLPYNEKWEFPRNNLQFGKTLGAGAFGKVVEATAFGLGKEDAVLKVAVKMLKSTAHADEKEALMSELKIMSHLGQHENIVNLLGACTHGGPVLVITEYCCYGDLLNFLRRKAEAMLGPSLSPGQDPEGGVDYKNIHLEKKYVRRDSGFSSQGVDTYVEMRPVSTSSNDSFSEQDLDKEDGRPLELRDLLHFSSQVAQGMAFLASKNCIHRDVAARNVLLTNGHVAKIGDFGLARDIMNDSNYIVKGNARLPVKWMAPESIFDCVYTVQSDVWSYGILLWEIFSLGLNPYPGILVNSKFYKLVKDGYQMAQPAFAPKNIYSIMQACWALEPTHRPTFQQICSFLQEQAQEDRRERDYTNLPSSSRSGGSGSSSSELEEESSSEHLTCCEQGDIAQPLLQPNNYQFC

[8] = biological target: Fibroblast growth factor receptor 1 (Homo sapiens, UniProt P11362); assay type: functional
[9] = biological target: MAP/microtubule affinity-regulating kinase 3 (Homo sapiens, UniProt P27448); assay type: functional;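 note: MARK3 affinity measured as one member of a kinome panel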
[10] = biological target: Cyclin-dependent kinase 8 (Homo sapiens, UniProt P49336); experiment: Navigating the Kinome. Panel member name: CDK8; assay type: functional
[11] = biological target: Macrophage-stimulating protein receptor (Homo sapiens, UniProt Q04912); experiment: Navigating the Kinome. Panel member name: MST1R; assay type: functional
[12] = biological target: cAMP-dependent protein kinase catalytic subunit alpha (Homo sapiens, UniProt P17612); assay type: functional
[13] = biological target: Leucine-rich repeat serine/threonine-protein kinase 2 (Homo sapiens, UniProt Q5S007); assay type: functional;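 note: value from a broad kinome-wide panel profiling study in which LRRK2 was one of the kinases tested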
[14] = biological target: Calcium/calmodulin-dependent protein kinase type II subunit alpha (Homo sapiens, UniProt Q9UQM7); experiment: Navigating the Kinome. Panel member name: CAMK2A; assay type: functional
[15] = biological target: 5'-AMP-activated protein kinase catalytic subunit alpha-1 (Homo sapiens, UniProt Q13131); assay type: functional
5'-AMP-activated protein kinase catalytic subunit alpha-1, sequence (Q13131 whole entry): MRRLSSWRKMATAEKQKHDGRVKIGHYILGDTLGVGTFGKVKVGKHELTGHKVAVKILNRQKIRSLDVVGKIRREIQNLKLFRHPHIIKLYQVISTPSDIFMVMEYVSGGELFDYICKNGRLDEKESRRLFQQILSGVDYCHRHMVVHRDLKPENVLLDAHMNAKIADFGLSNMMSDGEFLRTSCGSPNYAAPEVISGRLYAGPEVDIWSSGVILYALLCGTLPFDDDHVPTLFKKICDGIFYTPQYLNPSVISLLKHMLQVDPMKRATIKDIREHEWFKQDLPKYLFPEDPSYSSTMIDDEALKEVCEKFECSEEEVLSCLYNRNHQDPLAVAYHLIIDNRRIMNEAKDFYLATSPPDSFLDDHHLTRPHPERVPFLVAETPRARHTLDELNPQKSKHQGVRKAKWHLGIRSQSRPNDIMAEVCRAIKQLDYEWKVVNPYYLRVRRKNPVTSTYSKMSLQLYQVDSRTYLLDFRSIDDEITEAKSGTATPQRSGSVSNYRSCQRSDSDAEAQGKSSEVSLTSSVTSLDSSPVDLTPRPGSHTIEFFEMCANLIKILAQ

[16] = biological target: Glycogen synthase kinase-3 alpha (Homo sapiens, UniProt P49840); assay type: functional;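 note: GSK3A result taken from a broad kinome-wide kinase panel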
[17] = biological target: Glycogen synthase kinase-3 beta (Homo sapiens, UniProt P49841); assay type: functional;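 note: value comes from a broad kinome profiling panel, with GSK3B as the panel member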
[18] = biological target: Vascular endothelial growth factor receptor 1 (Homo sapiens, UniProt P17948); assay type: functional;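 note: measured within a kinome-wide profiling panel, FLT1 as the panel member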
[19] = biological target: Tyrosine-protein kinase Fyn (Homo sapiens, UniProt P06241); assay type: functional
[20] = biological target: Vascular endothelial growth factor receptor 2 (Homo sapiens, UniProt P35968); assay type: functional
[21] = biological target: Serine/threonine-protein kinase TAO1 (Homo sapiens, UniProt Q7L7X3); assay type: functional
[22] = biological target: Death-associated protein kinase 3 (Homo sapiens, UniProt O43293); assay type: functional;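 note: measured as one member of a kinome-wide profiling panel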
[23] = biological target: Mitogen-activated protein kinase kinase kinase kinase 2 (Homo sapiens, UniProt Q12851); assay type: functional;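 note: measured as one member of a kinome-wide kinase panel, with MAP4K2 as the panel entry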
[24] = biological target: Platelet-derived growth factor receptor alpha (Homo sapiens, UniProt P16234); experiment: Navigating the Kinome. Panel member name: PDGFRA; assay type: functional
[25] = biological target: Leukocyte tyrosine kinase receptor (Homo sapiens, UniProt P29376); experiment: Navigating the Kinome. Panel member name: LTK; assay type: functional
[26] = biological target: Tyrosine-protein kinase BTK (Homo sapiens, UniProt Q06187); assay type: functional
[27] = biological target: ALK tyrosine kinase receptor (Homo sapiens, UniProt Q9UM73); assay type: functional;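 note: ALK tested as one member of a kinase panel screen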
[28] = biological target: Cyclin-dependent kinase 9 (Homo sapiens, UniProt P50750); assay type: functional;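 note: value from the CDK9 entry of a kinome-spanning kinase panel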
[29] = biological target: Mitogen-activated protein kinase 14 (Homo sapiens, UniProt Q16539); assay type: functional;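 note: part of a kinome-wide panel, MAPK14 entry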
[30] = biological target: Serine/threonine-protein kinase N2 (Homo sapiens, UniProt Q16513); assay type: functional
[31] = biological target: Mitogen-activated protein kinase kinase kinase kinase 5 (Homo sapiens, UniProt Q9Y4K4); assay type: functional;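 note: measured as one member of a kinome-spanning kinase panel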
[32] = biological target: Receptor-type tyrosine-protein kinase FLT3 (Homo sapiens, UniProt P36888); assay type: functional;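 note: FLT3 was tested as one member of a kinome-wide kinase panel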
[33] = biological target: Inhibitor of nuclear factor kappa-B kinase subunit epsilon (Homo sapiens, UniProt Q14164); experiment: Navigating the Kinome. Panel member name: IKBKE; assay type: functional
Inhibitor of nuclear factor kappa-B kinase subunit epsilon, sequence (Q14164 whole entry): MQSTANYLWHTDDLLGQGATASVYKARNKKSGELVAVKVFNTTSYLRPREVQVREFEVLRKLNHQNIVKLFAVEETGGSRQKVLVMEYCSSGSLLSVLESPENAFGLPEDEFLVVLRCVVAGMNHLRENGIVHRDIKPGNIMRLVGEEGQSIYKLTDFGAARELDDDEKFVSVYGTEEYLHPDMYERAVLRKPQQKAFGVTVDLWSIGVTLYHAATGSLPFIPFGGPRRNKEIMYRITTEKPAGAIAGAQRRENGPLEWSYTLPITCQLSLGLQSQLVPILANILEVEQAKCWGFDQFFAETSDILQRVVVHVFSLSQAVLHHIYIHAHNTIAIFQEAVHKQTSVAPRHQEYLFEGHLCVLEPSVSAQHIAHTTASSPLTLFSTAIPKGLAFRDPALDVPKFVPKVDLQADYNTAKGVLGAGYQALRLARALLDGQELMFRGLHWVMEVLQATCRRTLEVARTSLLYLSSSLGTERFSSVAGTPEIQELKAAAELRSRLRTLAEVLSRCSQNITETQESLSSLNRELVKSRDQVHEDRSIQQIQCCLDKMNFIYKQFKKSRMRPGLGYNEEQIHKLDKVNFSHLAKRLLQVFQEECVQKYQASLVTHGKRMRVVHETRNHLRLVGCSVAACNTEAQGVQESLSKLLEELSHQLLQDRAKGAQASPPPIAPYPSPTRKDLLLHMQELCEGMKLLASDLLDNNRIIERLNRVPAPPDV

[34] = biological target: Tyrosine-protein kinase JAK2 (Homo sapiens, UniProt O60674); assay type: functional;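 note: JAK2 tested as one member of a kinase panel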
[35] = biological target: Mitogen-activated protein kinase 8 (Homo sapiens, UniProt P45983); assay type: functional;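 note: value comes from one member of a kinome-wide kinase profiling panel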
[36] = biological target: High affinity nerve growth factor receptor (Homo sapiens, UniProt P04629); assay type: functional;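 note: NTRK1 tested as one member of a kinome-wide profiling panel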
[37] = biological target: Tyrosine-protein kinase receptor TYRO3 (Homo sapiens, UniProt Q06418); assay type: functional;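 note: TYRO3 value obtained as one member of a kinome-wide profiling panel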
[38] = biological target: Dual specificity mitogen-activated protein kinase kinase 2 (Homo sapiens, UniProt P36507); experiment: Navigating the Kinome. Panel member name: MAP2K2; assay type: functional
[39] = biological target: Dual specificity protein kinase CLK2 (Homo sapiens, UniProt P49760); assay type: functional
[40] = biological target: Tyrosine-protein kinase ABL1 (Homo sapiens, UniProt P00519); assay type: functional
[41] = biological target: cAMP-dependent protein kinase catalytic subunit PRKX (Homo sapiens, UniProt P51817); assay type: functional
[42] = biological target: Insulin-like growth factor 1 receptor (Homo sapiens, UniProt P08069); experiment: Navigating the Kinome. Panel member name: IGF1R; assay type: functional
[43] = biological target: G protein-coupled receptor kinase 5 (Homo sapiens, UniProt P34947); experiment: Navigating the Kinome. Panel member name: GPRK5; assay type: functional
[44] = biological target: Dual specificity mitogen-activated protein kinase kinase 1 (Homo sapiens, UniProt Q02750); experiment: Navigating the Kinome. Panel member name: MAP2K1; assay type: functional
[45] = biological target: Dual specificity tyrosine-phosphorylation-regulated kinase 1A (Homo sapiens, UniProt Q13627); assay type: functional;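 note: measured against DYRK1A as one member of a broad kinome profiling panel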
[46] = biological target: Serine/threonine-protein kinase PAK 4 (Homo sapiens, UniProt O96013); assay type: functional;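 note: value obtained within a kinome profiling panel in which PAK4 was one of the panel members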
[47] = biological target: Dual specificity protein kinase CLK4 (Homo sapiens, UniProt Q9HAZ1); assay type: functional
[48] = biological target: Serine/threonine-protein kinase pim-1 (Homo sapiens, UniProt P11309); assay type: functional
[49] = biological target: T1, Microphthalmia-associated transcription factor (Homo sapiens, UniProt O75030); experiment: reducers of TRPM1 reporter luminescence, concentration series – cell-based, SK-MEL-5, cherry-picked, set 3, MITF inhibitor project, dose response (AID 493073); assay type: functional;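 note: SK-MEL-5 melanoma cells with luciferase driven by the MITF target TRPM1 promoter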
T1 sequence (O75030 whole entry): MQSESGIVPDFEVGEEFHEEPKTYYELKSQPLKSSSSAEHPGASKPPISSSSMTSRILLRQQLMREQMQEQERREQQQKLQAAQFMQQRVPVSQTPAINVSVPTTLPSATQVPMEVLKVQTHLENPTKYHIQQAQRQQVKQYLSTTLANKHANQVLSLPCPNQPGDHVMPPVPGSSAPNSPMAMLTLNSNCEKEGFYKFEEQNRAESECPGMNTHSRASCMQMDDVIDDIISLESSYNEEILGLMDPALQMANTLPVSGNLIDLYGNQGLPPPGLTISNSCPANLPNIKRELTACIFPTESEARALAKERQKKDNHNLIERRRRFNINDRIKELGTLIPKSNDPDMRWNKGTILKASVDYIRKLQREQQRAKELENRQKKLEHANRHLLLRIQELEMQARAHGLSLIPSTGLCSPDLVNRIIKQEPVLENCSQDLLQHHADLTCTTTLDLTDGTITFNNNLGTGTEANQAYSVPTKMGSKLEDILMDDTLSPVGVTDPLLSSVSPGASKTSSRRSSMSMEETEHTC

[50] = biological target: Botulinum neurotoxin type A (Clostridium botulinum (strain Hall / ATCC 3502 / NCTC 13319 / Type A), UniProt P0DPI1); experiment: High-throughput multiplex microsphere dose response for inhibitors of toxin protease, specifically Botulinum neurotoxin light chain A protease, compounds from Cherry Pick 02.; assay type: functional; conditions: read-out: EC50_MICROM
[51] = test system: HEK293; experiment: EBV LMP1 TES2 canonical NF-kB signalling blockers – cell-based, HEK293, luciferase, cherry-pick, dose response (AID 588343); assay type: functional; conditions: Homo sapiens
[52] = biological target: T2, Hexokinase HKDC1 (Homo sapiens, UniProt Q2TB90); experiment: activation of HKDC1 glucose phosphorylation – biochemical, W721R variant, dose response (AID 504730); assay type: functional
T2 sequence (Q2TB90 whole entry): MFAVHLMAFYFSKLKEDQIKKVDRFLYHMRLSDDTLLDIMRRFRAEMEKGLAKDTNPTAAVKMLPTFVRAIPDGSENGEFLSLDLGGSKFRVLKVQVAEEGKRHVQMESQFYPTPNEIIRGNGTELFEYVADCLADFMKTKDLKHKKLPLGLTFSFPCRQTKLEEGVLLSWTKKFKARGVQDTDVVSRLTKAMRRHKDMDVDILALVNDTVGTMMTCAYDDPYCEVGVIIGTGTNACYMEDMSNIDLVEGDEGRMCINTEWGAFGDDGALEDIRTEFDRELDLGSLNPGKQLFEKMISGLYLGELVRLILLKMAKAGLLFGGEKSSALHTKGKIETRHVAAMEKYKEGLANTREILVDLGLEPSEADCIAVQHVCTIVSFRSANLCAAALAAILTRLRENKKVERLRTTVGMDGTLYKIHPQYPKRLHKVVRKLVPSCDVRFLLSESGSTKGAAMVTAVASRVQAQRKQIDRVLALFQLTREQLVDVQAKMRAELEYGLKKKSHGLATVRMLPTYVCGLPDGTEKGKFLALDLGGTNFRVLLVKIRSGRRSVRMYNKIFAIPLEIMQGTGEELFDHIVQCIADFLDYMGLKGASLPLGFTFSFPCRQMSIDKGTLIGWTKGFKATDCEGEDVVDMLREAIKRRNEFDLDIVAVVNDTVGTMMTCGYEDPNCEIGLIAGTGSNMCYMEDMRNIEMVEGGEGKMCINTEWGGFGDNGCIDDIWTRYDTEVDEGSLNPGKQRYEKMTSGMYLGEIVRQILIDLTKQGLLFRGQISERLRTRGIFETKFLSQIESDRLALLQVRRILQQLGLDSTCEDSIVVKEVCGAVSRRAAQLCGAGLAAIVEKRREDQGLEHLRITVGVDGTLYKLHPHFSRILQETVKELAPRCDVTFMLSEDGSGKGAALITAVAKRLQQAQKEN

[53] = biological target: Heat shock protein HSP 90-alpha (Homo sapiens, UniProt P07900); assay type: functional, organism-based
[54] = biological target: Hexokinase-1 (Homo sapiens, UniProt P19367); experiment: HK1 enzyme activation by HKDC1 hits – biochemical, selectivity assay for HKDC1 activator project, dose response (AID 504762); assay type: functional
[55] = biological target: Nonstructural protein 1 (Influenza A virus, UniProt Q194T2); assay type: functional, Influenza A virus (A/California/07/2009(H1N1))
[56] = biological target: Latent membrane protein 1 (Human herpesvirus 4 (strain B95-8), UniProt P03230); experiment: LMP1 TES1 pathway selectivity over dsRED control – imaging, HEK293T, dual-color eGFP/dsRED, cherry-picks, selectivity assay for LMP1 NF-kB inhibitor project, dose response (AID 588398); assay type: functional, cell-based
[57] = biological target: Lethal factor (Bacillus anthracis, UniProt P15917); experiment: High-throughput multiplex microsphere dose response for inhibitors of toxin protease, specifically Lethal Factor protease, compounds from Cherry Pick 02.; assay type: functional; conditions: read-out: EC50_MICROM
[58] = biological target: Botulinum neurotoxin type F (Clostridium botulinum, UniProt P30996); experiment: High-throughput multiplex microsphere dose response for inhibitors of toxin protease, specifically Botulinum neurotoxin light chain F protease, compounds from Cherry Pick 02.; assay type: functional; conditions: read-out: EC50_MICROM
Botulinum neurotoxin type F, sequence (P30996 1-436 limits assumed): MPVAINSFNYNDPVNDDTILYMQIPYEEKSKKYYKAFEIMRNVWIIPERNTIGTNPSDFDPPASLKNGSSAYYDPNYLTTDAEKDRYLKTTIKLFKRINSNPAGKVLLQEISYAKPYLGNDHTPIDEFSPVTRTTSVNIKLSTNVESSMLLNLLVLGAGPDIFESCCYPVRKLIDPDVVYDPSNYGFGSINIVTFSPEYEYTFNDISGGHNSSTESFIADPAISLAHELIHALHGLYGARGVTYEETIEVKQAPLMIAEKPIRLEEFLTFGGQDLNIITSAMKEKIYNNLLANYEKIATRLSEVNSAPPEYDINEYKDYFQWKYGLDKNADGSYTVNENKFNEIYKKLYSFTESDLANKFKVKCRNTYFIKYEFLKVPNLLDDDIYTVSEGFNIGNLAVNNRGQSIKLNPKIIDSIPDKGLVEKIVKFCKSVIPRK

Serine/threonine-protein kinase TBK1, sequence (Q9UHD2 whole entry): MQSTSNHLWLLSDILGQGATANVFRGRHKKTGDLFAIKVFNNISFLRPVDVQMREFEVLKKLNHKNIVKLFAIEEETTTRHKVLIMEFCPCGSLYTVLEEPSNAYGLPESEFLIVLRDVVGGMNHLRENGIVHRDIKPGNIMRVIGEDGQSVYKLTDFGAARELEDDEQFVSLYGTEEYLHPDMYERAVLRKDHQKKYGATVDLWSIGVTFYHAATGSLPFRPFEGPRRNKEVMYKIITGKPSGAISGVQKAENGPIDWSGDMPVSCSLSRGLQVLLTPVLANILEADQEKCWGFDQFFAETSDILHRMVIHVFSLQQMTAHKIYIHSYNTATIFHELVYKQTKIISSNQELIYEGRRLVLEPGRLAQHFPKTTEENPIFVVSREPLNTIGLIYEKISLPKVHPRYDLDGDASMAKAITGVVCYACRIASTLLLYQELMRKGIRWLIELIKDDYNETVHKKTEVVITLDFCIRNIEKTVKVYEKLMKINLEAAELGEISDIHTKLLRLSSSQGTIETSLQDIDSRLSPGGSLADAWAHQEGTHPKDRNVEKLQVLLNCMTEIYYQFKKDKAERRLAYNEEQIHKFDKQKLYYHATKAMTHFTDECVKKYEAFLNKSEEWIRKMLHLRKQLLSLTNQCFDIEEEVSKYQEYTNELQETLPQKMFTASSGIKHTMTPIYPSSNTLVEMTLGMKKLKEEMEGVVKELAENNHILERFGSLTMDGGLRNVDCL
Mitogen-activated protein kinase 9, sequence (P45984 whole entry): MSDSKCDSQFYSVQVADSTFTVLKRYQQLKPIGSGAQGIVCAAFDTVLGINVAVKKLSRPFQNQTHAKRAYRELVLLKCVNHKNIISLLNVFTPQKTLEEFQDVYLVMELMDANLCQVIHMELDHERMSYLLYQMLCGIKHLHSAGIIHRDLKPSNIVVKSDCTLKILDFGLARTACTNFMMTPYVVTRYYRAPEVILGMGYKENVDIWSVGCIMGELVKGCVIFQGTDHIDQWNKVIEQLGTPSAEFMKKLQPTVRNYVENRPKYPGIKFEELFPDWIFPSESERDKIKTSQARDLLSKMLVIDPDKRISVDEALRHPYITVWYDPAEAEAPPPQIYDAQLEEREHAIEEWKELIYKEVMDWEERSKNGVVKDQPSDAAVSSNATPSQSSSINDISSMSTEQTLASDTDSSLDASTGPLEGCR

Cc1cc(O)nc2[nH]nc(-c3cccc(-c4ccc(C#N)cc4)c3)c12
inactive: Ki [1] > 3.16 µM | Ki [2] > 3.98 µM | Ki [3] > 1.58 µM | Ki [4] > 6.31 µM | Ki [5] > 5.01 µM | Ki [6] > 5.01 µM | Ki [7] > 2.51 µM | Ki [8] > 3.98 µM | Ki [10] > 3.98 µM | Ki [11] > 3.98 µM | Ki [12] > 1.26 µM | Ki [13] > 2.51 µM | Ki [14] > 7.94 µM | Ki [15] > 3.16 µM | Ki [17] > 3.98 µM | Ki [18] > 3.98 µM | Ki [19] > 6.31 µM | Ki [20] > 2.51 µM | Ki [21] > 6.31 µM | Ki [22] > 5.01 µM | Ki [23] > 2.51 µM | Ki [24] > 2.51 µM | Ki [25] > 2.51 µM | Ki [26] > 6.31 µM | Ki [27] > 6.31 µM | Ki [28] > 1.58 µM | Ki [29] > 3.98 µM | Ki [30] > 5.01 µM | Ki [31] > 3.98 µM | Ki [32] > 3.16 µM | Ki [33] > 3.16 µM | Ki [34] > 2.51 µM | Ki [35] > 5.01 µM | Ki [36] > 3.16 µM | Ki [37] > 3.16 µM | Ki [38] > 3.98 µM | Ki [39] > 3.98 µM | Ki [40] > 3.98 µM | Ki [41] > 3.16 µM | Ki [42] > 2.51 µM | Ki [43] > 3.98 µM | Ki [44] > 3.16 µM | Ki [45] > 2 µM | Ki [46] > 5.01 µM | Ki [47] > 2.51 µM | Ki [48] > 6.31 µM
active: Ki [9] 0.001 µM | Ki [16] 3.98 µM

CC(=NNc1nc2ccccc2o1)c1cc2ccccc2cn1
active: AC50 [49] 0.175 µM | EC50 [50] 5.1 µM | AC50 [51] 0.0887 µM | EC50 [52] 2.24 µM | AC50 [53] 16.9 µM | IC50 [55] 7.16 µM | AC50 [56] 1.7 µM | EC50 [58] 9.4 µM
inactive: EC50 [54] > 80 µM | EC50 [57] 20 µM
